According to patent US20090286720A1, “PHARMACEUTICAL COMPOSITION FOR THE DIAGNOSIS, PREVENTION OR TREATMENT OF A TUMORAL PATHOLOGY COMPRISING AN AGENT MODULATING THE POLYMERIZATION STATE OF ACTIN” (priority 2001, published 2009):
Starred links: 1 amine or outer side, 2 acyl side, 3 side chain; linkers in the order of their positions; H or OH if unused. Non-standard residues stand in square brackets, D forms with d. Residues, ends and D or L forms follow the SMILES beside them. X1 = CC[C@H](C)[C@H](OC(=O)[C@@H](C)[C@@H](CC)N[*:1])C(=O)[*:2]; X2 = C[C@H](N[*:1])C(=O)C(C)(C)C(=O)[*:2]; NMeY = CN[C@@H](Cc1ccc(O)cc1)C(=O)O; NMeL = CN[C@@H](CC(C)C)C(=O)O; NMeV = CN[C@H](C(=O)O)C(C)C

Assays:
EWS-Fli cells [1] = assay: Toxicity of dolastatin-11 by MTT test on EWS-Fli cells; assay type: cell-based, murine; details: low concentrations (10 or 20 nM), FIG. 13
Method: (§1) The cells (10^4 per well) were cultured in 96-well plates in the presence of different concentrations of D11. Monitoring of the toxicity of D11 in relation to time was performed by means of an MTT test on the NIH3T3 cells (A) and the EWS-Fli cells (B). The results are illustrated in FIG. 13.

NIH3T3 cells [2] = assay: Morphological modification of NIH3T3 cells (actin filaments stained with phalloidin-FITC); assay type: cell-based, murine; details: same concentrations (10 or 20 nM); FIG. 12
Method: The cells (5×10^3) were cultured on glass slides 10 mm in diameter and kept in culture for 24 hours. After fixation (3% paraformaldehyde) and permeabilization (0.2% TritonX100), the actin filaments of the cells were immunostained by phalloidin coupled to FITC. […]

NIH3T3 cells [3] = assay: Toxicity of dolastatin-11 by MTT test on NIH3T3 cells; assay type: cell-based, murine; details: low concentrations (10 or 20 nM), FIG. 13
Method: as §1

[4] = Survival of the mice (tolerated dose); details: intravenous
actin = assay: In vitro measurement of actin polymerization by fluorescence anisotropy in EWS-Fli cell extracts; assay type: biochemical; details: dolastatin 11 added in the polymerization buffer of EWS-Fli cell extracts; deficit versus NIH3T3 extracts; FIG. 11
Method: Cell extracts of NIH3T3 cells or EWS-Fli cells were brought into the presence of actin Alexa 488 in a buffer G ([…] pH 8.1; 170 μM CaCl2; 170 μM DTT; 170 μM ATP). The polymerization reaction was triggered by addition of a buffer P (KCl 51 mM, MgCl2 1 mM and ATP 0.5 mM). Dolastatin (μM) was added to the cell extracts of the EWS-Fli cells at the same time as the buffer P. Polymerization of actin was monitored by fluorescence anisotropy on a Beacon 2000. The results obtained are illustrated in FIG. 11.

EWS-Fli cells [5] = assay: Development of tumors in the nude mouse after subcutaneous injection of EWS-Fli cells; assay type: in vivo; details: nude mice, 10 μg/kg intravenous on 5th, 8th and 11th days after EWS-Fli cell injection, measured on 28th day; FIG. 14
Method: Twenty-four hours after irradiation (5 Gy) of the mice, the EWS-Fli cells (10^6) were inoculated via the subcutaneous route. The mice were then separated into two lots, with the first lot corresponding to the untreated mice and the second lot to the mice having received three injections of dolastatin 11 via the intravenous route (10 μg/kg) on the 5th, 8th and 11th days after injection of the EWS-Fli cells. […]

EWS-Fli cells [6] = assay: Morphological modification of EWS-Fli cells (actin filaments stained with phalloidin-FITC); assay type: cell-based, murine; details: FIG. 12
Method: The cells (5×10^3) were cultured on glass slides 10 mm in diameter and kept in culture for 24 hours. After fixation (3% paraformaldehyde) and permeabilization (0.2% TritonX100), the actin filaments of the cells were immunostained by phalloidin coupled to FITC. Untreated NIH3T3; NIH3T3 transfected by EWS-Fli (EF); EF incubated in the presence of 10 μM or 100 μM of jasplakinolide; EF incubated with 10 μM or 20 μM of D11 (FIG. 12).

Compound | cytotoxicity or cytostaticity (MTT test) (EWS-Fli cells [1]) | morphology of NIH3T3 cells (NIH3T3 cells [2]) | cytotoxicity or cytostaticity (MTT test) (NIH3T3 cells [3]) | dose used (10 μg/kg) relative to the dose not affecting survival of the mice [4] | capacity of cell extracts to polymerize actin (fluorescence anisotropy) (actin) | development of tumors (EWS-Fli cells [5]) | effect on the cytoskeleton (EWS-Fli cells [6]; EWS-Fli cells incubated with 10 μM or 20 μM of D11) | contact structures between the cells (EWS-Fli cells [6]; EWS-Fli cells, 10 or 20 nM) | stress fibers and morphology of the cells (EWS-Fli cells [6]; EWS-Fli cells, 10 or 20 nM) | effect on the cytoskeleton (EWS-Fli cells [6]; EWS-Fli cells incubated with 10 μM or 100 μM of jasplakinolide)
CC[C@H](C)[C@@H]1OC(=O)[C@@H](C)[C@@H](CC)NC(=O)[C@H](C)NC(=O)C(C)(C)C(=O)[C@H](C)NC(=O)[C@H](Cc2ccc(OC)cc2)N(C)C(=O)[C@H](C(C)C)N(C)C(=O)CNC(=O)[C@H](CC(C)C)N(C)C(=O)CNC1=O [dolastatin 11] (cyclo(A[X1]G[NMeL]G[NMeV][NMeY](Me)[X2])) | no cytotoxicity or cytostaticity effects were observed | did not modify in the least | no cytotoxicity or cytostaticity effects were observed | five times weaker than the dose not affecting survival of the mice | can compensate in part for this deficit | markedly delayed | effect | reestablished the contact structures between the cells | restored the stress fibers of the cells with a morphology close to that of NIH3T3 cells | –
C/C1=C\[C@H](C)C[C@H](C)OC(=O)C[C@H](c2ccc(O)cc2)NC(=O)[C@@H](Cc2c(Br)[nH]c3ccccc23)N(C)C(=O)[C@H](C)NC(=O)[C@@H](C)C1 [jasplakinolide] | – | – | – | – | – | – | – | – | – | effect
